Assay results taken from patent publication US20230079045A1 (priority 2019, published 2023).

Tests used:
Type in all cases: cell-based, influenza virus
IFVA/Mal/302/54 = experiment: cytopathic effect (CPE) antiviral test in MDCK cells, IFVA/Mal/302/54; conditions: unidentified influenza virus, MDCK, 120 h, read-out: EC50(IFVA/Mal/302/54), MDCK cells, CPE method, CCK-8 cell viability, 5 days
IFVA/Weiss/43 = experiment: cytopathic effect (CPE) antiviral test in MDCK cells, IFVA/Weiss/43; conditions: unidentified influenza virus, MDCK, 120 h, read-out: EC50(IFVA/Weiss/43), MDCK cells, CPE method, CCK-8 cell viability, 5 days
IFV A/PR/8/34 = experiment: cytopathic effect (CPE) antiviral test in MDCK cells, IFV A/PR/8/34; conditions: unidentified influenza virus, PR/8, MDCK, 120 h, read-out: EC50(IFV A/PR/8/34)

Row | SMILES | EC50 (IFVA/Mal/302/54) [nM] | EC50 (IFVA/Weiss/43) [nM] | EC50 (IFV A/PR/8/34) [nM]
1 | O=C(Nc1ccc2nc(-c3ccnc(C(=O)N4CCN(C(c5ccccc5)c5nnn(C(F)F)n5)CC4)c3)oc2c1)[C@@H]1CC1(F)F (mixture of isomers) [Compound 103, (S)—N-(2-(2-(4-((R/S)-(2-(difluoromethyl)-2H-tetrazol-5-yl)(phenyl)methyl)piperazine-1-carbonyl)pyridin-4-yl)benzo[d]oxazol-6-yl)-2,2-difluorocyclopropane-1-carboxamide] | 17 | 7 | 26
2 | O=C(Nc1ccc2oc(-c3ccnc(C(=O)N4CCN(C(c5ccccc5)c5nnn(C(F)F)n5)CC4)c3)cc2c1)[C@@H]1C[C@@H]1F (mixture of isomers) [Compound 111, (1S,2S)—N-(2-(2-(4-((R/S)-(2-(difluoromethyl)-2H-tetrazol-5-yl)(phenyl)methyl)piperazine-1-carbonyl)pyridin-4-yl)benzofuran-5-yl)-2-fluorocyclopropane-1-carboxamide] | 2 | 0.5 | 2
3 | Cc1nnn(C(c2ccccc2)C2CCN(C(=O)c3cc(-c4nc5cc(NC(=O)[C@@H]6C[C@@H]6F)ccc5o4)ccn3)CC2)n1 (mixture of isomers) [Compound 120, (1S,2S)-2-fluoro-N-(2-(2-(4-((R/S)-(5-methyl-2H-tetrazol-2-yl)(phenyl)methyl)piperidine-1-carbonyl)pyridin-4-yl)benzo[d]oxazol-5-yl)cyclopropanecarboxamide] | 14 | 3 | 12
4 | CC(=O)Nc1ccc2oc(-c3ccnc(C(=O)C4CCN(C(c5ccccc5)c5nnn(C(F)F)n5)CC4)c3)nc2c1 (racemic) [Compound 42, (R/S)—N-(2-(2-(1-((2-(difluoromethyl)-2H-tetrazol-5-yl)(phenyl)methyl)piperidine-4-carbonyl)pyridin-4-yl)benzo[d]oxazol-5-yl)acetamide] | 10 | 20 | 20
5 | Cn1nnc(C(c2ccccc2)N2CCN(C(=O)c3cc(-c4nc5cc(N6CCCC6=O)ccc5o4)ccn3)CC2)n1 (racemic) [Compound 45, (R/S)-1-(2-(2-(4-((2-methyl-2H-tetrazol-5-yl)(phenyl)methyl)piperazine-1-carbonyl)pyridin-4-yl)benzo[d]oxazol-5-yl)pyrrolidin-2-one] | 12 | 15 | 27
6 | O=C(Nc1ccc2oc(-c3ccnc(C(=O)N4CCN(C(c5ccccc5)c5nnn(C(F)F)n5)CC4)c3)nc2c1)C1CCC1 (racemic) [Compound 67, (R/S)—N-(2-(2-(4-((2-(difluoromethyl)-2H-tetrazol-5-yl)(phenyl)methyl)piperazine-1-carbonyl)pyridin-4-yl)benzo[d]oxazol-5-yl)cyclobutanecarboxamide] | 21 | 12 | 17
7 | O=C(c1cc(-c2nc3cc(-c4cnsc4)ccc3o2)ccn1)N1CCN(C(c2ccccc2)c2nnn(C(F)F)n2)CC1 (racemic) [Compound 101, (R/S)-(4-((2-(difluoromethyl)-2H-tetrazol-5-yl)(phenyl)methyl)piperazin-1-yl)(4-(5-(isothiazol-4-yl)benzo[d]oxazol-2-yl)pyridin-2-yl)methanone] | 6 | 4 | 27
8 | O=C(Nc1ccc2nc(-c3ccnc(C(=O)N4CCN(C(c5ccccc5)c5nnn(C(F)F)n5)CC4)c3)oc2c1)C1CC1 (racemic) [Compound 104, (R/S)—N-(2-(2-(4-((2-(difluoromethyl)-2H-tetrazol-5-yl)(phenyl)methyl)piperazine-1-carbonyl)pyridin-4-yl)benzo[d]oxazol-6-yl)cyclopropanecarboxamide] | 16 | 12 | 59
9 | Cn1cc(-c2ccc3oc(-c4ccnc(C(=O)N5CCN(C(c6ccccc6)c6nnn(C(F)F)n6)CC5)c4)nc3c2)cn1 (racemic) [Compound 105, (R/S)-(4-((2-(difluoromethyl)-2H-tetrazol-5-yl)(phenyl)methyl)piperazin-1-yl)(4-(5-(1-methyl-1H-pyrazol-4-yl)benzo[d]oxazol-2-yl)pyridin-2-yl)methanone] | 9 | 7 | 11
10 | Cn1ccnc1-c1ccc2nc(-c3ccnc(C(=O)N4CCN(C(c5ccccc5)c5nnn(C(F)F)n5)CC4)c3)oc2c1 (racemic) [Compound 107, (R/S)-(4-((2-(difluoromethyl)-2H-tetrazol-5-yl)(phenyl)methyl)piperazin-1-yl)(4-(6-(1-methyl-1H-imidazol-2-yl)benzo[d]oxazol-2-yl)pyridin-2-yl)methanone] | 6 | 2 | 9
11 | CC(C)(F)C(=O)Nc1ccc2oc(-c3ccnc(C(=O)N4CCN(C(c5ccccc5)c5nnn(C(F)F)n5)CC4)c3)nc2c1 (racemic) [Compound 108, (R/S)—N-(2-(2-(4-((2-(difluoromethyl)-2H-tetrazol-5-yl)(phenyl)methyl)piperazine-1-carbonyl)pyridin-4-yl)benzo[d]oxazol-5-yl)-2-fluoro-2-methylpropanamide] | 6 | 2 | 23
12 | Cn1nnc(C(c2ccccc2)N2CCN(C(=O)c3cc(-c4nc5cc(N6CCOC6=O)ccc5o4)ccn3)CC2)n1 (stereo not shown) [Compound 50, 3-(2-(2-(4-((2-methyl-2H-tetrazol-5-yl)(phenyl)methyl)piperazine-1-carbonyl)pyridin-4-yl)benzo[d]oxazol-5-yl)oxazolidin-2-one] | 120 | 242 | 
13 | COC(=O)Nc1ccc2oc(-c3ccnc(C(=O)N4CCN(C(c5ccccc5)c5nnn(C)n5)CC4)c3)nc2c1 (stereo not shown) [Compound 51, Methyl (2-(2-(4-((2-methyl-2H-tetrazol-5-yl)(phenyl)methyl)piperazine-1-carbonyl)pyridin-4-yl)benzo[d]oxazol-5-yl)carbamate] | 34 | 84 | 
14 | CC(=O)Nc1ccc2oc(-c3ccnc(C(=O)N4CCN(C(c5ccccc5)c5nnn(C(F)F)n5)CC4)c3F)nc2c1 (stereo not shown) [Compound 56, N-(2-(2-(4-((2-(difluoromethyl)-2H-tetrazol-5-yl)(phenyl)methyl)piperazine-1-carbonyl)-3-fluoropyridin-4-yl)benzo[d]oxazol-5-yl)acetamide] | 33 | 17 | 
15 | CC(=O)Nc1cc2nc(-c3ccnc(C(=O)N4CCN(C(c5ccccc5)c5nnn(C(F)F)n5)CC4)c3)oc2cc1F (stereo not shown) [Compound 59, N-(2-(2-(4-((2-(difluoromethyl)-2H-tetrazol-5-yl)(phenyl)methyl)piperazine-1-carbonyl)pyridin-4-yl)-6-fluorobenzo[d]oxazol-5-yl)acetamide] | 58 | 56 | 
16 | CC(=O)Nc1ccc2nn(-c3ccnc(C(=O)N4CCN(C(c5ccccc5)c5nnn(C(F)F)n5)CC4)c3)cc2c1 (stereo not shown) [Compound 60, N-(2-(2-(4-((2-(difluoromethyl)-2H-tetrazol-5-yl)(phenyl)methyl)piperazine-1-carbonyl)pyridin-4-yl)-2H-indazol-5-yl)acetamide] | 84 | 54 | 
17 | CC(=O)Nc1cc(F)c2oc(-c3ccnc(C(=O)N4CCN(C(c5ccccc5)c5nnn(C(F)F)n5)CC4)c3)nc2c1 (stereo not shown) [Compound 61, N-(2-(2-(4-((2-(difluoromethyl)-2H-tetrazol-5-yl)(phenyl)methyl)piperazine-1-carbonyl)pyridin-4-yl)-7-fluorobenzo[d]oxazol-5-yl)acetamide] | 78 | 28 | 
18 | CC(=O)Nc1ccc2nc(-c3ccnc(C(=O)N4CCN(C(c5ccccc5)c5nnn(C(F)F)n5)CC4)c3)oc2c1 (stereo not shown) [Compound 70, N-(2-(2-(4-((2-(difluoromethyl)-2H-tetrazol-5-yl)(phenyl)methyl)piperazine-1-carbonyl)pyridin-4-yl)benzo[d]oxazol-6-yl)acetamide] | 32 | 32 | 
19 | O=C(c1cc(-c2nc3cc(N4CCCC4)ccc3o2)ccn1)N1CCN(C(c2ccccc2)c2nnn(C(F)F)n2)CC1 (stereo not shown) [Compound 71, (4-((2-(difluoromethyl)-2H-tetrazol-5-yl)(phenyl)methyl)piperazin-1-yl)(4-(5-(pyrrolidin-1-yl)benzo[d]oxazol-2-yl)pyridin-2-yl)methanone] | 52 | 31 | 
20 | O=C(Nc1ccc2oc(-c3ccnc(C(=O)N4C5CCC4CN(C(c4ccccc4)c4nnn(C(F)F)n4)C5)c3)nc2c1)C1CC1 (stereo not shown) [Compound 175, N-(2-(2-(3-((2-(difluoromethyl)-2H-tetrazol-5-yl)(phenyl)methyl)-3,8-diazabicyclo[3.2.1]octane-8-carbonyl)pyridin-4-yl)benzo[d]oxazol-5-yl)cyclopropanecarboxamide] | 21 | 13 | 
21 | O=C1CCCN1c1ccc2oc(-c3ccnc(C(=O)N4C5CCC4CN(C(c4ccccc4)c4nnn(C(F)F)n4)C5)c3)nc2c1 (stereo not shown) [Compound 176, 1-(2-(2-(3-((2-(difluoromethyl)-2H-tetrazol-5-yl)(phenyl)methyl)-3,8-diazabicyclo[3.2.1]octane-8-carbonyl)pyridin-4-yl)benzo[d]oxazol-5-yl)pyrrolidin-2-one] | 21 | 33 | 
22 | Cn1nnc(C(c2ccccc2)N2CCN(C(=O)c3cc(-c4nc5cc(NC(=O)C6(F)CC6)ccc5o4)ccn3)CC2)n1 (stereo not shown) [Compound 194, 1-fluoro-N-(2-(2-(4-((2-methyl-2H-tetrazol-5-yl)(phenyl)methyl)piperazine-1-carbonyl)pyridin-4-yl)benzo[d]oxazol-5-yl)cyclopropane-1-carboxamide] | 25 | 24 | 
